Measurements taken from patent US4250259A, “Microbiological production of ketones from C3 -C6 secondary alcohols” (priority 1979, dated 1981).
Like-named read-outs stand apart in the source and are kept apart here.

Key:
[1] = test system: secondary alcohol dehydrogenase (SADH), cell-free soluble extract; details: Growth Substrate CH3 OH
Experimental: (§1) To prepare the cell-free secondary alcohol dehydrogenase (SADH) system, the washed cells were disrupted with a Wave Energy Ultrasonic Oscillator, Model W201 (Wave Energy System, Inc., Newtown, Pa.) and centrifuged at 20,000×g. for 30 minutes. […] The enzyme activity was measured with a fluorescence spectrophotometer (Perkin Elmer, Model MPF 44A) by following the formation of reduced NAD (EX 340 nm, Em 460 nm). The formation of reduced NAD was also followed with an absorption spectrophotometer at 340 nm. The assay system (3 ml.) contained: potassium phosphate buffer pH 7.0; 150 μmol.; NAD 1 μmol.; a given amount of enzyme preparation; and secondary alcohol 10 μmol. The reaction was started by the addition of substrate. One unit of enzyme activity represents the reduction of one μmole NAD per minute. Protein concentrations were determined by the Lowry method (J. Biol. Chem., 193: 255-275 (1951)).
(§2) The experimental procedure for the tests reported in Table VIII were as follows: 1 mg protein of crude extract was added into a 0.5 ml. 0.05 M phosphate buffer (pH 7.0) in a 10-ml. vial. […] The reaction mixture was incubated at 30° C. on a water bath. A 3 μl sample was removed with a syringe at 15 min. of incubation and was assayed with g.l.c. Catalytic activity was also assayed by fluorescence spectrophotometry.

[2] = test system: secondary alcohol dehydrogenase (SADH), cell-free soluble extract; details: Growth Substrate CH3 OH; remark: listed apart in the source
Experimental: as §1, §2

[3] = test system: secondary alcohol dehydrogenase (SADH), cell-free soluble extract; details: Growth Substrate CH4
Experimental: as §1, §2

[4] = test system: secondary alcohol dehydrogenase (SADH), cell-free soluble extract; details: Growth Substrate CH3 OH; remark: listed apart in the source
Experimental: as §1, §2

[5] = test system: secondary alcohol dehydrogenase (SADH), cell-free soluble extract; details: Growth Substrate CH4; remark: listed apart in the source
Experimental: as §1, §2

[6] = test system: secondary alcohol dehydrogenase (SADH), cell-free soluble extract; details: Growth Substrate CH3 OH; remark: listed apart in the source
Experimental: as §1, §2

[7] = test system: secondary alcohol dehydrogenase (SADH), cell-free soluble extract; details: Growth Substrate CH4; remark: listed apart in the source
Experimental: as §1, §2

[8] = test system: secondary alcohol dehydrogenase (SADH), cell-free soluble extract
Experimental: as §1, §2

[9] = test system: secondary alcohol dehydrogenase (SADH), cell-free soluble extract; details: Growth Substrate CH3 OH; remark: listed apart in the source
Experimental: as §1, §2

[10] = test system: secondary alcohol dehydrogenase, crude extracts; details: 2-butanol as a substrate; extracts of methanol-grown yeast
Experimental: (§3) Cell suspensions (2 g. wet weight) of packed cells in 10 ml. of 50 mM sodium phosphate buffer, pH 7.0 at 4° C. were disrupted by sonication with a Megason ultrasonic disintegration. The sonicated cell suspensions were centrifuged for 15 minutes at 30,000×g. The supernantant liquid was termed the crude extracts.
(§4) Secondary alcohol dehydrogenase activity was measured spectrophotometrically at 340 nm with a NAD^+ as an electron acceptor. The reaction mixture, in a total 3.0 ml., contained 50 mM phosphate buffer, pH 8.0, 5 μmoles NAD^+, crude extracts, and substrate. The reactions were started by addition of 100 μl of 0.1 M substrate and the rate of NAD^+ reduction was measured. Protein concentration was determined by the method of Lowry et al.
(§5) Oxidation of secondary alcohols were also estimated spectrophotometrically by measuring the reduction of NAD^+. […] NRRL Y-11,328 Torulopsis sp.

[11] = test system: secondary alcohol dehydrogenase, crude extracts; details: 2-butanol as a substrate; extracts of methanol-grown yeast; remark: listed apart in the source
Experimental: as §3, §4, §5

[12] = test system: secondary alcohol dehydrogenase, crude extracts; details: 2-butanol as a substrate; extracts of methanol-grown yeast; remark: listed apart in the source
Experimental: as §3, §4, §5

[13] = test system: secondary alcohol dehydrogenase (SADH), cell-free soluble extract; details: Growth Substrate CH4; remark: listed apart in the source
Experimental: as §1, §2

[14] = test system: secondary alcohol dehydrogenase, crude extracts; details: 2-butanol as a substrate; extracts of methanol-grown yeast; remark: listed apart in the source
Experimental: as §3, §4, §5

[15] = test system: secondary alcohol dehydrogenase (SADH), cell-free soluble extract; details: Growth Substrate CH3 OH; remark: listed apart in the source
Experimental: as §1, §2

[16] = test system: cell-free extracts of strain ATCC 21439; assay: stoichiometry of production of 2-butanone from 2-butanol by cell-free extracts (Table IX); format: biochemical, Pseudomonas sp. ATCC 21,439; details: 30° C., 1.0 mg protein, 1.0 μmoles NAD, 10 μmoles 2-butanol
Experimental: The reaction mixtures 3 ml (1.0 mg protein) were incubated at 30°
^(a) Determined gas chromatographically.
^(b) Determined fluorescence spectrophotometrically.
consumption of NAD was corrected.

[17] = test system: secondary alcohol dehydrogenase (SADH), cell-free soluble extract; details: Growth Substrate CH3 OH; remark: listed apart in the source
Experimental: as §1, §2

[18] = test system: secondary alcohol dehydrogenase (SADH), cell-free soluble extract; remark: listed apart in the source
Experimental: as §1, §2

CCC(C)O (stereo not shown) [2-Butanol, 2-butanol]
Conversion Rate, 2-butanol to 2-butanone [1]: 5.0 nmoles/min/mg protein
Conversion Rate, 2-butanol to 2-butanone [2]: 3.0 nmoles/min/mg protein
Conversion Rate, 2-butanol to 2-butanone [3]: 2.6 nmoles/min/mg protein
Conversion Rate, 2-butanol to 2-butanone [4]: 1.8 nmoles/min/mg protein
Conversion Rate, 2-butanol to 2-butanone [5]: 1.4 nmoles/min/mg protein
Conversion Rate, 2-butanol to 2-butanone [6]: 1.5 nmoles/min/mg protein
Conversion Rate, 2-butanol to 2-butanone [7]: 2.5 nmoles/min/mg protein
Conversion Rate, 2-butanol to 2-butanone ([8]; Growth Substrate CH3 NH2): 20.0 nmoles/min/mg protein
Conversion Rate, 2-butanol to 2-butanone ([8]; Growth Substrate CH3 OH): 23.2 nmoles/min/mg protein
Conversion Rate, 2-butanol to 2-butanone ([8]; Growth Substrate HCOOCH3): 16.0 nmoles/min/mg protein
Conversion Rate, 2-butanol to 2-butanone [9]: 2.2 nmoles/min/mg protein
specific activities [10]: 78 nmoles NAD^+ reduced per min. per mg. protein
specific activities [11]: 105 nmoles NAD^+ reduced per min. per mg. protein
specific activities [12]: 90 nmoles NAD^+ reduced per min. per mg. protein
Conversion Rate, 2-butanol to 2-butanone [13]: 1.8 nmoles/min/mg protein
specific activities [14]: 62 nmoles NAD^+ reduced per min. per mg. protein
Conversion Rate, 2-butanol to 2-butanone [15]: 1.6 nmoles/min/mg protein
2-Butanol Consumed ([16]; Experiment 1: 10 min.): 260 nmol
2-Butanol Consumed ([16]; Experiment 2: 20 min.): 530 nmol
Conversion Rate, 2-butanol to 2-butanone [17]: 2.4 nmoles/min/mg protein
Conversion Rate, 2-butanol to 2-butanone ([18]; Growth Substrate CH3 OH): 2.0 nmoles/min/mg protein
Conversion Rate, 2-butanol to 2-butanone ([18]; Growth Substrate CH4): 1.5 nmoles/min/mg protein
